Some results are limits rather than exact numbers.

Common to all, as to type: cell-based
One experiment concerns the target T1, human TLR7 (Homo sapiens, UniProt Q9NYK1).
T1 construct: host or cells: HEK-Blue cells
T1 sequence (Q9NYK1 27-1049): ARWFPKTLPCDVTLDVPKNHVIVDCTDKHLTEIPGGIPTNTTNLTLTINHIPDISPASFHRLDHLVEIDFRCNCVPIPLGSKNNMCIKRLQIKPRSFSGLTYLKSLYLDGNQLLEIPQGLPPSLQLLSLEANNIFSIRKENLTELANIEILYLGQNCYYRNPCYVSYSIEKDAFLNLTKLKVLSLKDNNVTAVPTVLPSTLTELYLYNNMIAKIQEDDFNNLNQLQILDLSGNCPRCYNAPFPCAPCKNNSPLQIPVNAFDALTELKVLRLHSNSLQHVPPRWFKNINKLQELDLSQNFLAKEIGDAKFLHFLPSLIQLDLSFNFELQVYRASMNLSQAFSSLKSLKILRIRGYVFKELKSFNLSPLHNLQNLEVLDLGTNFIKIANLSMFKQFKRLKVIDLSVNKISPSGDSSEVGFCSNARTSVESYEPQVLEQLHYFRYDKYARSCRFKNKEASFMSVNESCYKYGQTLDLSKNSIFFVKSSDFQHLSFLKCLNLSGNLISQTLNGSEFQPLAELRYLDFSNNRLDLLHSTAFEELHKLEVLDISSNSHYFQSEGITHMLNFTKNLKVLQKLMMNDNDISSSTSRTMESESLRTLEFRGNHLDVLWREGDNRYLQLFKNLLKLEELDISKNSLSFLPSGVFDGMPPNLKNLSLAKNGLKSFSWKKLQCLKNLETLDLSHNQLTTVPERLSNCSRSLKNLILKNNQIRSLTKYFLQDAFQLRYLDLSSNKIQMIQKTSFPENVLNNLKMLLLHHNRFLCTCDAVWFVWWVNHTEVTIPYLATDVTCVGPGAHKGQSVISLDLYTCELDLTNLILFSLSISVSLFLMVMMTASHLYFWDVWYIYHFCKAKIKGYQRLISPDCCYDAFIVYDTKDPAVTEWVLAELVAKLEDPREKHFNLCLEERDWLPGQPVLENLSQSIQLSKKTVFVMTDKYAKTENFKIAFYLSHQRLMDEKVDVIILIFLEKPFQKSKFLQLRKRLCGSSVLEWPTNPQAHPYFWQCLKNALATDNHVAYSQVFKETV
Description: TLR7 inhibition reporter assay (HEK-Blue, SEAP). Conditions: HEK-Blue cells overexpressing human TLR7, gardiquimod 7.5 μM, 22 hour incubation. The method, boiled down: (§1)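 Dose–response from 0.05 nM to 50 μM was run in HEK-Blue human TLR7, TLR8 and TLR9 reporter cells. After 30 min at room temperature with compound, ligand was added (TLR7 gardiquimod 7.5 μM; TLR8 R848 15.9 μM; TLR9 ODN2006 5 nM) and SEAP measured next day, at 22 h.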
For orientation: In a reporter assay the amount or activity of a reporter protein is the signal.

A further experiment deals with T2, human TLR8 (Homo sapiens, UniProt Q9NR97).
T2 construct: host or cells: HEK-Blue cells
T2 sequence (Q9NR97 27-1041): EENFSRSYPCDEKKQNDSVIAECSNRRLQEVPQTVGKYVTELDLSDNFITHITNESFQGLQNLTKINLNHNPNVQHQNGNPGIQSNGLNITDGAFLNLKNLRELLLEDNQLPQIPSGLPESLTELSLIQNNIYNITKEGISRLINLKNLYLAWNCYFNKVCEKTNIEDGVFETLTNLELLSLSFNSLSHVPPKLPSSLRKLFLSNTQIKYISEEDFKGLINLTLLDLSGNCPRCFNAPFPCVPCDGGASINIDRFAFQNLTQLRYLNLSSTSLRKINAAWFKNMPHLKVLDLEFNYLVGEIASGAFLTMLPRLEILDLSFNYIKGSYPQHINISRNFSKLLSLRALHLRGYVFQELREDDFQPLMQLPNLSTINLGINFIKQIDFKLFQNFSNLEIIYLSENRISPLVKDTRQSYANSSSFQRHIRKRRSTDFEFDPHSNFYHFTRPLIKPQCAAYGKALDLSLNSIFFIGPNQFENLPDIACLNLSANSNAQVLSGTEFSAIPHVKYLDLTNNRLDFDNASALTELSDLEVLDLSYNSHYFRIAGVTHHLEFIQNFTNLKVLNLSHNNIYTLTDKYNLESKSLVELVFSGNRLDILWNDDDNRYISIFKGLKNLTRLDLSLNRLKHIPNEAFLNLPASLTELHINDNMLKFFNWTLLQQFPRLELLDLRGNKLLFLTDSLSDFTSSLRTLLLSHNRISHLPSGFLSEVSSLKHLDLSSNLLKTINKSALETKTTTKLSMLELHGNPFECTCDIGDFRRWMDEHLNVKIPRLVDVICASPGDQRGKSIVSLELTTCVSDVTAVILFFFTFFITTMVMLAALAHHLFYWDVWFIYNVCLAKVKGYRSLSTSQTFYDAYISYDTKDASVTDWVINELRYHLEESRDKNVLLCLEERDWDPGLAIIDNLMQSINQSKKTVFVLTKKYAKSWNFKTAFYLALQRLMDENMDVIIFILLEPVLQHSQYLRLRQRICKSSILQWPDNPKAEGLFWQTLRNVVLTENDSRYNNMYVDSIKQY
Description: TLR8 inhibition reporter assay (HEK-Blue, SEAP). The conditions noted are these: HEK-Blue cells overexpressing human TLR8, R848 15.9 μM, 22 hour incubation. The method, boiled down: as §1

The target in a further experiment is T3, human TLR9 (Homo sapiens, UniProt Q9NR96).
T3 construct: host or cells: HEK-Blue cells
T3 sequence (Q9NR96 26-1032): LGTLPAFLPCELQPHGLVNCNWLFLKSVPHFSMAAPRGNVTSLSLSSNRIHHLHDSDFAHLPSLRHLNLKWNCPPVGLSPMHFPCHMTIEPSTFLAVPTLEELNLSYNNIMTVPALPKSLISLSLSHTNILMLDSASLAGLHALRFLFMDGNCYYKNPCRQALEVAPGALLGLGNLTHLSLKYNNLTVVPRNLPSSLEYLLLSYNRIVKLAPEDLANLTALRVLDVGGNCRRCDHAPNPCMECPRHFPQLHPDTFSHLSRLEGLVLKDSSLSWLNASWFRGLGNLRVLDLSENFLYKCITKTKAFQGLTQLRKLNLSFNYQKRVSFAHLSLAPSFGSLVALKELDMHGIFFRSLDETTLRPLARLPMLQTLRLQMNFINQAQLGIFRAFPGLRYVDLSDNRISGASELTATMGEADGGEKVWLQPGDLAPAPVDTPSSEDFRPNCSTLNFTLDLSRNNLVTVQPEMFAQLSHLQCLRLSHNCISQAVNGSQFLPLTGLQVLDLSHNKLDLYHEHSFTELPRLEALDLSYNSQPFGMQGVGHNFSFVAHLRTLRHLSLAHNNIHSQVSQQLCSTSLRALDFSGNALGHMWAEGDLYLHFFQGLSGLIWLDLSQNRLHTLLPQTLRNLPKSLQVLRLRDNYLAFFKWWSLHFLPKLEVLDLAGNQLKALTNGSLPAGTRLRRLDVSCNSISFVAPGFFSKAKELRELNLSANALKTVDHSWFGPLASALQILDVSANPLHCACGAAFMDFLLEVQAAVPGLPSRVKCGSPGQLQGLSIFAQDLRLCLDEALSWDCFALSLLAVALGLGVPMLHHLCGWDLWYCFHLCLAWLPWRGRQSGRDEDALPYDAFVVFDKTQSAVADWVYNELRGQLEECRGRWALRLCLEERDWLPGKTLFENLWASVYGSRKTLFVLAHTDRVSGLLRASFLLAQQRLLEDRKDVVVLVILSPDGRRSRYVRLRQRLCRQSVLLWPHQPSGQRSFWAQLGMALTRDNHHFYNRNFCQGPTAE
The experiment is described as follows: TLR9 inhibition reporter assay (HEK-Blue, SEAP). The conditions noted are these: HEK-Blue cells overexpressing human TLR9, ODN2006 5 nM, 22 hour incubation. The method, boiled down: as §1

The term IC50 denotes the concentration that gives 50% inhibition. Lower therefore signals higher potency. For `Cc1cc2nncn2cc1-c1[nH]c2ccc(C3CCN(Cc4ncn(C)n4)CC3)cc2c1C(C)C` [Example 20, 6-(3-isopropyl-5-(1-((1-methyl-1H-1,2,4-triazol-3-yl)methyl)piperidin-4-yl)-1H-indol-2-yl)-7-methyl-[1,2,4] triazolo[4,3-a]pyridine], the values for the IC50 against human TLR7, at human TLR8 and on human TLR9 were 69.6 nM, 408 nM and 19600 nM, respectively.
The corresponding values for `Cc1cc(-c2[nH]c3ccc(C4CCN(Cc5ncn(C)n5)CC4)cc3c2C(C)C)cn2cnnc12` [Example 21, 6-(3-isopropyl-5-(1-((1-methyl-1H-1,2,4-triazol-3-yl)methyl)piperidin-4-yl)-1H-indol-2-yl)-8-methyl-[1,2,4]triazolo[4,3-a]pyridine] are 3.9 nM, 10.1 nM and 4670 nM.
For the molecule `Cc1nnc2ccc(-c3[nH]c4ccc(C5CCN(Cc6ncn(C)n6)CC5)cc4c3C(C)C)cn12` [Example 22, 6-(3-isopropyl-5-(1-((1-methyl-1H-1,2,4-triazol-3-yl)methyl)piperidin-4-yl)-1H-indol-2-yl)-3-methyl-[1,2,4]triazolo[4,3-a]pyridine], the IC50 against human TLR7 was 136 nM; against human TLR8, 17.6 nM; on human TLR9, no less than 50000 nM.
Take `CC(C)c1c(-c2ccc3nncn3c2)[nH]c2ccc(C3CCN(Cc4ncn(C)n4)CC3)cc12` [Example 23, 6-(3-isopropyl-5-(1-((1-methyl-1H-1,2,4-triazol-3-yl)methyl)piperidin-4-yl)-1H-indol-2-yl)-[1,2,4]triazolo[4,3-a]pyridine]: the IC50 on human TLR7 is 54.9 nM; at human TLR8 it was 375 nM; at human TLR9, no less than 50000 nM.
Consider `CNC(=O)CN1CCC(c2ccc3[nH]c(-c4ccc5nncn5c4C)c(C(C)C)c3c2)CC1` [Example 24, 2-(4-(3-isopropyl-2-(5-methyl-[1,2,4]triazolo[4,3-a]pyridin-6-yl)-1H-indol-5-yl)piperidin-1-yl)-N-methylacetamide], for which the IC50 against human TLR7 was found to be 40.8 nM; on human TLR8, 31.9 nM; on human TLR9, 8930 nM.
For the molecule `Cc1c(-c2[nH]c3ccc(C4CCN(CC(=O)N(C)C)CC4)cc3c2C(C)C)ccc2nncn12` [Example 25, 2-(4-(3-isopropyl-2-(5-methyl-[1,2,4]triazolo[4,3-a]pyridin-6-yl)-1H-indol-5-yl)piperidin-1-yl)-N,N-dimethylacetamide], the IC50 on human TLR7 was found to be 49.5 nM; at human TLR8, 28.5 nM; against human TLR9, 3320 nM.
The like results for `Cc1c(-c2[nH]c3ccc(C4CCN(Cc5ncn(C)n5)CC4)cc3c2C(C)C)ccc2nncn12` [Example 26, 6-(3-isopropyl-5-(1-((1-methyl-1H-1,2,4-triazol-3-yl)methyl)piperidin-4-yl)-1H-indol-2-yl)-5-methyl-[1,2,4]triazolo[4,3-a]pyridine] were, in that order, 117 nM, 27.9 nM and 12400 nM.
With `COCCN1CCC(c2ccc3[nH]c(-c4cc(C)c5nncn5c4)c(C(C)C)c3c2)CC1` [Example 27, 6-(3-isopropyl-5-(1-(2-methoxyethyl)piperidin-4-yl)-1H-indol-2-yl)-8-methyl-[1,2,4]triazolo[4,3-a]pyridine], the IC50 against human TLR7 was 0.9 nM; on human TLR8, 3.4 nM; at human TLR9, 3500 nM.
On to `Cc1cc(-c2[nH]c3ccc(C4CCN(CCO)CC4)cc3c2C(C)C)cn2cnnc12` [Example 28, 2-(4-(3-isopropyl-2-(8-methyl-[1,2,4]triazolo[4,3-a]pyridin-6-yl)-1H-indol-5-yl)piperidin-1-yl) ethan-1-ol], for which the IC50 at human TLR7 was found to be 0.4 nM; at human TLR8 it was 3.4 nM; against human TLR9, 454 nM.
Turning to `Cc1cc(-c2[nH]c3ccc(C4CCN(CC5(C)COC5)CC4)cc3c2C(C)C)cn2cnnc12` [Example 29, 6-(3-isopropyl-5-(1-((3-methyloxetan-3-yl)methyl)piperidin-4-yl)-1H-indol-2-yl)-8-methyl-[1,2,4]triazolo[4,3-a]pyridine], the concentration for half-maximal inhibition (IC50) came to 0.7 nM at human TLR7, 1.1 nM at human TLR8 and 4330 nM on human TLR9.
Consider `Cc1cc(-c2[nH]c3ccc(C4CCN(CC5COC5)CC4)cc3c2C(C)C)cn2cnnc12` [Example 30, 6-(3-isopropyl-5-(1-(oxetan-3-ylmethyl)piperidin-4-yl)-1H-indol-2-yl)-8-methyl-[1,2,4]triazolo[4,3-a]pyridine], for which the figures for the IC50 at human TLR7, on human TLR8 and against human TLR9 were 0.3 nM, 1.3 nM and 3110 nM, respectively.
As to `Cc1cc(-c2[nH]c3ccc(C4CCN(CC#N)CC4)cc3c2C(C)C)cn2c(C)nnc12` [Example 31, 2-(4-(2-(3,8-dimethyl-[1,2,4]triazolo[4,3-a]pyridin-6-yl)-3-isopropyl-1H-indol-5-yl)piperidin-1-yl)acetonitrile], the IC50 against human TLR7 was 3.8 nM; against human TLR8 it was 12.8 nM; on human TLR9 it was 727 nM.

For the origin of these results see US11130756B2, “[1,2,4]Triazolo[4,3-A]pyridinyl substituted indole compounds” (BRISTOL-MYERS SQUIBB COMPANY, priority 2017, dated 2021).
